Experimental data as given in patent US20030170643A1, “Regulation of apoB treatment and drug screening for cardiovascular and metabolic disorders or syndromes” (priority 1999, published 2003).

Assays:
[1] = tested on: rat hepatoma cells; assay: TBARS assay of ROS in cell lysates of rat hepatoma cells; format: cell-based; details: fatty acid alone
Outline: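 Rat hepatoma cells pre-incubated with DHA alone or DHA plus co-treatments (iron chelator DFX or lipid antioxidants), pulse-labelled 15 min with radiolabelled Met/Cys then chased in unlabelled medium. ROS in cell lysates at end of chase measured by standard TBARS assay, compared against BSA control.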

[2] = tested on: rat primary hepatocytes; assay: Secretion of newly synthesized ([35S]methionine-labeled) VLDL-apoproteins by rat primary hepatocytes incubated with fatty acid/BSA complexes; format: cell-based; details: fatty acid/BSA complexes (0.8 mM FA), VLDL fraction
Method: Cells were plated at a density of 2×10^6 cells/ml on 60-mm culture dishes (previously coated with poly-D-lysine) in modified M199 medium (M199, 1% fetal bovine serum [FBS], 1 mM nicotinamide, 0.1 nM insulin, 3 mg/ml choline, 1.1% L-glutamine, 1% BSA). After a four-hour attachment period, the medium was changed (modified M199 identical to the above except BSA was omitted and the concentration of FBS was raised to 10%). The next morning, cells were washed in serum-free medium three times, the experimental media added, and the cells incubated at 37° C. for 4-6 hours. The experimental medium consisted of serum-free RPMI containing the appropriate isotopes (see below) and fatty acids (FA) present at a final concentration of 0.8 mM complexed to BSA (FA:BSA molar ratio=5:1). The fatty acids used were oleic (OA), EPA, and DHA. Control medium was identical, except that BSA (0.16 mM) without fatty acids was present. For metabolic labeling of proteins, [^35S]methionine (70 uCi/ml) was included in the experimental media.
Following the 4-6 hour incubation period, the cell monolayer was washed, then solubilized in 0.1 M NaOH, and the cell protein determined by the Lowry method (Lowry, O. H., Rosebrough, N. J., Farr, A. L., and Randall, R. J. (1951) J Biol Chem 193, 265-75). Each 60 mm dish contained approximately 1-1.5 mg of cell protein. The secreted apoproteins were isolated from the medium either by ultracentrifugation or immunoprecipitation. To isolate the d<1.006 (VLDL) and 1.006<d<1.063 (IDL and LDL) g/ml density classes by centrifugation, sequential 20 hour runs at 48,000 rpm in a 50 Ti Beckman rotor at 4° C. were performed. After the first run at d=1.006, the upper VLDL layer was harvested and the density of the infranatant adjusted to 1.066 g/ml with solid KBr. After being overlaid with a KBr solution of density 1.063, the adjusted infranatant was re-centrifuged as before to isolate the IDL and LDL fractions. In some experiments, the HDL fraction (1.063<d<1.21) was isolated by sequential density centrifugation. Lipoprotein fractions were then dialyzed against 0.9% NaCl containing 10 mM unlabeled methionine, 0.2 mM PMSF, and 2 mM EDTA. Dialyzed lipoproteins were delipidated using 9 volumes of 100% isopropanol. Apoproteins were then collected by centrifugation in a Sorval HB-4 rotor at 10,000 rpm and 4° C. for 20 min, and dissolved in buffer (0.01 M phosphate, pH 7,1 % SDS, 10% glycerol), in preparation for electrophoresis.
To immunoprecipitate apoB or apoE from unfractionated conditioned medium, monospecific rabbit antiserum to rat apoB or apoE was used. Briefly, an aliquot of the medium was mixed with an equal volume of diluted antiserum (1:100 in PBS and 1% BSA) and incubated overnight at 4° C. Staph A was added in the form of immunoprecipitin, and the resultant precipitate containing the immune complexes was washed extensively, the staph A cells removed, and the isolated apoprotein dissolved in gel sample buffer (0.0625M tris/Cl, pH 6.8, 20% glycerol, 2% SDS). Electrophoretic separation of apoVLDL, apoIDL/LDL, and immunoprecipitates was accomplished using 3.5% acrylamide-18% glycerol gels as described (Maguire, G. F., Lee, M., and Connelly, P. W. (1989) J Lipid Res 30, 757-61). An aliquot of each sample was taken for scintillation counting, so that total radioactivity applied to each lane could be determined. Also, protein size standards were included in each gel.
After electrophoresis, the gels were stained, fixed, soaked in Enhance fluor solution, and dried following protocols supplied by the manufacturer. Dried gels were then exposed to X-ray film at −70° C. and signals on the resulting fluorograms were typically quantified by densitometry or phosphorimaging. Using the total radioactivity applied to each lane of the gel and the relative signal intensity of each band in that lane, the radioactivity associated with each apoprotein species was calculated. […]

`CCCCCCCC/C=C\CCCCCCCC(=O)O` [OA, oleic acid] was tested, and the “reactive oxygen species (ROS), TBARS assay, fatty acid compared to BSA” value [1] was “does not increase”, the “secretion of newly synthesized VLDL-ApoB48, percentage of secretion observed with BSA alone” value [2] was 132 ± 11 percentage and the “secretion of newly synthesized VLDL-ApoB100, percentage of secretion observed with BSA alone” value [2] was 96 ± 4 percentage. The “secretion of newly synthesized VLDL-ApoE, percentage of secretion observed with BSA alone” value [2] was 84 ± 3 percentage.
